Measurements published in patent US12435051B2, “Dual modulator of mGluR5 and 5-HT2A receptor, and use thereof” (Vivozon Inc., priority 2020, dated 2025).
Like-named read-outs stand apart in the source and are kept apart here.

Experiments:
[1] = system: physical (tactile) allodynia in spinal nerve ligation model; test: Analgesic efficacy experiment using animal model (Chung model, spinal nerve ligation); format: in vivo, Sprague-Dawley rats
Protocol: The Chung model (spinal nerve ligation model) is a representative animal model to study neuropathic pain and is widely accepted as a gold standard for an animal pain model by global pharmaceutical companies around the world.
In this experiment, male Sprague-Dawley rats (100-120 g) purchased from Koatech (Pyeongtaek-si, Gyeonggi-do) were used. Rats were kept in a room maintained at constant temperature and humidity with a 12 hour light-dark cycle. Rats were allowed to eat and drink freely during the experiment.
For the Chung surgery, rats were anesthetized by isoflurane inhalation and the left lumbar nerves L5 and L6 were tightly tied with a suture thread (6-0 silk thread) at the end of the dorsal ganglion and at a front of an entrance to the sciatic nerve according to the article (Kim and Chung (1992), Pain 50(3):355-63). After suturing the incision, the rats were recovered for 2 weeks in the controlled maintenance room to induce physical allodynia in the left hind paw of the rat. To measure physical (tactile) allodynia, the rats were placed in a cage with a wire mesh on the bottom. Stimuli of increasing intensity (using the von Frey filaments in a range of 0.41 to 15.8 g) were placed on the plantar surface on the side of the nerve injury. The stimulus intensity at which the pain response (abrupt lifting, licking or sucking of the foot) was induced was recorded while applying gradual increment of stimuli. As described in the study of Chaplan et al. (1994) (Chaplan et al. (1994) J. Neurosci. Methods 53(1):55-63), the paw withdrawal threshold (PWT) was determined by increasing or decreasing continuous stimulus intensity, and the result was analyzed by applying Dixon's up-down method. Only rats showing no behavior dysfunction (e.g., feet dragging or dropping) were selected and included in the study, and the PWT of the rats used was 3.16 g or less.
After measuring the degree of basic reaction before drug injection, each compound and solvent were injected by oral administration (12.5-100 mg/kg), and the measurement was repeated at regular time intervals (60 and 120 minutes) after the drug was injected.
The experimenter conducted the PWT measurement in a blind condition not knowing which rat was administered with which drug. The control group was administered with gabapentin (65 mg/kg, intraperitoneal administration), and was randomly mixed during the measurement. Statistical analysis was performed on the measured pain response threshold by calculating the reversal rate (% reversal) from pain in Equation 1 below. […] Pain reversal rate (% reversal)=[(PWT after drug administration)−(PWT before drug administration)]*100/[(15 g, Estimated PWT in normal animals)−(PWT before drug administration)] [Equation 1]
The PWT used in this time is a value obtained by multiplying the gram, the unit of “force” measure, by 10,000, and taking the logarithm, which is a method generally used in academia.
Each experiment consisted of the compound group, the solvent group of the compound and the gabapentin (GBP) group as positive control group. As solvent of the compound, 0.5% HPMC (hydroxypropylmethyl cellulose) was used.

mGluR5 = biological target: T1, mGluR5 (Homo sapiens, UniProt P41594); test: Fluorescence-based Ca2+ mobilization assay; format: cell-based; conditions: HEK293 cells overexpressing mGluR5; L-glutamate at EC80
T1 construct: expressed in transfected cells; host or cells: HEK293
Summary of the method: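 HEK293 cells stably overexpressing mGluR5, dye-loaded 60 min at 37 °C, then preincubated with compound 30 min at room temperature in the dark. Ca2+ response to L-glutamate at EC80 read on FLIPR for 2 min. Signal normalised to glutamate (100%) and vehicle (0%); IC50 from % inhibition.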

human 5-HT2AR = biological target: T2, human 5-HT2AR (Homo sapiens, UniProt P28223); test: HTRF-based IP1 accumulation assay (5-HT2AR antagonistic effect); format: cell-based; conditions: HEK293 cells overexpressing human 5-HT2AR; serotonin at EC80
T2 construct: expressed in transfected cells; host or cells: HEK293
Summary of the method: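 HEK293 cells stably overexpressing human 5-HT2AR were pre-incubated with compound (top 10 μM, serial dilutions, LiCl buffer) 10 min at room temperature, then stimulated with EC80 serotonin 30 min at 37 °C. IP1 accumulation was read by HTRF; IC50s came from activity normalized to serotonin and IP1 controls.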

[2] = system: spinal nerve ligation model (neuropathic pain model); test: Confirmation of synergistic analgesic effect via dual action (spinal nerve ligation model); format: in vivo; conditions: sub-effective doses, FIG. 1
Protocol: The confirmation of the synergistic analgesic effect via the dual action of mGluR5 and 5-HT2AR was carried out by the use of representative mGluR5 antagonist MPEP (2-methyl-6-(phenylethynyl)pyridine) and 5-HT2AR antagonist MDL11,939 in a “spinal nerve ligation model” which is a neuropathic pain model.
In order to measure the analgesic effect of MPEP and MDL11,939, when administered alone or simultaneously together, the reversibility rate of pain relieving parameter (% reversal) was calculated according to the method of Experimental Example 4 and the results are represented in FIG. 1.

[3] = rat, oral, 25 mpk, 1 h, read-out: % reversal (1 h)
[4] = rat, oral, 25 mpk, 2 h, read-out: % reversal (2 h)
[5] = rat, oral, 50 mpk, 1 h, read-out: % reversal (1 h)
[6] = rat, oral, 50 mpk, 2 h, read-out: % reversal (2 h)
[7] = Rattus norvegicus, po, 1 h, read-out: % reversal (1 h)
[8] = Rattus norvegicus, po, 2 h, read-out: % reversal (2 h)

T1 sequence (P41594 21-1212): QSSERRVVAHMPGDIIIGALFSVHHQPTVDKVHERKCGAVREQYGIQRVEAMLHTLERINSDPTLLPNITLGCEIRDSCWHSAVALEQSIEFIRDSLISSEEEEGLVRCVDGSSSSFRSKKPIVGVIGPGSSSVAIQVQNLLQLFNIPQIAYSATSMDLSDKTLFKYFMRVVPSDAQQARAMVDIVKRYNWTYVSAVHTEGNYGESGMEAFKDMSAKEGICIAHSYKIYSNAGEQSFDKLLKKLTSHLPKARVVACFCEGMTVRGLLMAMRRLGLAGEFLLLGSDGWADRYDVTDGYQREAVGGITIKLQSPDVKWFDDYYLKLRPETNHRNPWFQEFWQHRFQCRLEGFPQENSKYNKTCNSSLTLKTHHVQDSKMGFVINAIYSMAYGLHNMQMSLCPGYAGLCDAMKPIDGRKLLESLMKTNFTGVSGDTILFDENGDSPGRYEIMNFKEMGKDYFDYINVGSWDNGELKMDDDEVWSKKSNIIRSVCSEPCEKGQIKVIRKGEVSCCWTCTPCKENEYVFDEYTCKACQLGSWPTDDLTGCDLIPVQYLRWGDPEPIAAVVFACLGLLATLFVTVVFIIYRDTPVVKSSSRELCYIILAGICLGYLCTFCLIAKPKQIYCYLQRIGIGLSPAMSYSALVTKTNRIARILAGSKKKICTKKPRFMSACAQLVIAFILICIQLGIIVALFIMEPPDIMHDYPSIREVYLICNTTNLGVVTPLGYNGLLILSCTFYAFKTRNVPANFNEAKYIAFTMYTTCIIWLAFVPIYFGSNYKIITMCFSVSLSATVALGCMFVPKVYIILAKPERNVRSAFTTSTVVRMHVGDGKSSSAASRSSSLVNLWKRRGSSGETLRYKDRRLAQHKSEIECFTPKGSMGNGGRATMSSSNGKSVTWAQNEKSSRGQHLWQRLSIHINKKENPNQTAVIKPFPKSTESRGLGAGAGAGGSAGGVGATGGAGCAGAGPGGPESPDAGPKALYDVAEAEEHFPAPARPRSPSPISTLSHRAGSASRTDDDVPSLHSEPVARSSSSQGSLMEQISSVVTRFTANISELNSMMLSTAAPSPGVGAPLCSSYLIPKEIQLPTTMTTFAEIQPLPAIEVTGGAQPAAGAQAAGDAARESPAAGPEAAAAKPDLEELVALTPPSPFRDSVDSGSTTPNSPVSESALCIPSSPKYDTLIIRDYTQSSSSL
T2 sequence (P28223 whole entry): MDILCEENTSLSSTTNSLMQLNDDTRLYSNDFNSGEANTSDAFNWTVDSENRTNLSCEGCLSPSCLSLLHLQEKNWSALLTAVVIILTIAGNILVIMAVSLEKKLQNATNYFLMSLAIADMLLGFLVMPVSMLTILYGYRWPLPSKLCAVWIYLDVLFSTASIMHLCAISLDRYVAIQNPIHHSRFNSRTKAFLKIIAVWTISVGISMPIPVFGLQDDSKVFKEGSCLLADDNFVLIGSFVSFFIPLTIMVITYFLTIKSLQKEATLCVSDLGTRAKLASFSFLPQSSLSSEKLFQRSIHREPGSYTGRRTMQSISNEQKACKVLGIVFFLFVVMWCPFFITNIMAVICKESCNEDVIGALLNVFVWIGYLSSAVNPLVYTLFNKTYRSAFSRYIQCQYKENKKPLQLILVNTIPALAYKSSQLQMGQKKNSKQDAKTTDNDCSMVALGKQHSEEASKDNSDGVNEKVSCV

Structure (SMILES)	IC50 (mGluR5) [µM]	IC50 (human 5-HT2AR) [µM]	inhibition in vivo at 50 mg/kg [1, 5] [%]	inhibition in vivo at 50 mg/kg [1, 6] [%]	further results
O=C(NCC1CCO1)c1ccc(C#Cc2ccccc2F)cc1 (stereo not shown) [Example 58, 4-((2-fluorophenyl)ethynyl)-N-(oxetan-2-ylmethyl)benzamide]	0.1 to 0.5	0.1 to 0.5			inhibition in vivo at 25 mg/kg [1, 3]: 61.5%; inhibition in vivo at 25 mg/kg [1, 4]: 28.3%
O=C(NCC1CCCCC1O)c1ccc(C#Cc2ccccc2F)cc1 (stereo not shown) [Example 63, 4-((2-fluorophenyl)ethynyl)-N-((2-hydroxycyclohexyl)methyl)benzamide]	< 0.1	0.1 to 0.5	70.9	42.1	
O=C(NCC1CCCC(O)C1)c1ccc(C#Cc2ccccc2F)cc1 (stereo not shown) [Example 64, 4-((2-fluorophenyl)ethynyl)-N-((3-hydroxycyclohexyl)methyl)benzamide]	< 0.1	0.5 to 1	10.4	45.2	
COC1(CNC(=O)c2ccc(C#Cc3ccccc3F)cc2)CCCCC1 [Example 65, 4-((2-fluorophenyl)ethynyl)-N-((1-methoxycyclohexyl)methyl)benzamide]	< 0.1	0.5 to 1			inhibition in vivo at 50 mg/kg [1, 7]: 34%; inhibition in vivo at 50 mg/kg [1, 8]: 80.8%
COC1(CNC(=O)c2ccc(C#Cc3ccccc3F)cc2)CCOCC1 [Example 66, 4-((2-fluorophenyl)ethynyl)-N-((4-methoxytetrahydro-2H-pyran-4-yl)methyl)benzamide]	< 0.1	0.5 to 1			inhibition in vivo at 25 mg/kg [1, 3]: 64.1%; inhibition in vivo at 25 mg/kg [1, 4]: 43.2%
O=C(NC[C@H]1CCOC1)c1ccc(C#Cc2ccccc2F)cc1 [Example 69, (R)-4-((2-fluorophenyl)ethynyl)-N-((tetrahydrofuran-3-yl)methyl)benzamide]	0.1 to 0.5	0.5 to 1			inhibition in vivo at 50 mg/kg [1, 7]: 110%; inhibition in vivo at 50 mg/kg [1, 8]: 110%
CCC1(CNC(=O)c2ccc(C#Cc3ccccc3F)cc2)COC1 [Example 72, N-((3-ethyloxetan-3-yl)methyl)-4-((2-fluorophenyl)ethynyl)benzamide]	< 0.1	0.1 to 0.5	41.9	71.8	
O=C(NCC1(O)COC1)c1ccc(C#Cc2ccccc2F)cc1 [Example 82, 4-((2-fluorophenyl)ethynyl)-N-((3-hydroxyoxetan-3-yl)methyl)benzamide]	0.5 to 1	0.5 to 1	70.3	89.1	
CC1(CNC(=O)c2ccc(C#Cc3ccc(F)cc3)cc2)COC1 [Example 83, 4-((4-fluorophenyl)ethynyl)-N-((3-methyloxetan-3-yl)methyl)benzamide]	< 0.1	0.1 to 0.5			inhibition in vivo at 25 mg/kg [1, 3]: 55%; inhibition in vivo at 25 mg/kg [1, 4]: 67.8%
C[C@]1(O)C[C@@H](CNC(=O)c2ccc(C#Cc3ccccc3F)cc2)C1 [Example 87, 4-((2-fluorophenyl)ethynyl)-N-(((1s,3s)-3-hydroxy-3-methylcyclobutyl)methyl)benzamide]	< 0.1	0.1 to 0.5	93.7	104	
O=C(NCC1CCC(F)(F)CC1)c1ccc(C#Cc2ccncc2)cc1 [Example 88, N-((4,4-difluorocyclohexyl)methyl)-4-(pyridin-4-ylethynyl)benzamide]	< 0.1	0.5 to 1	97.8	110	
O=C(NCC1CC(F)(F)C1)c1ccc(C#Cc2ccncc2)cc1 [Example 89, N-((3,3-difluorocyclobutyl)methyl)-4-(pyridin-4-ylethynyl)benzamide]	< 0.1	0.1 to 0.5	111	103	
O=C(NC[C@H]1CCCOC1)c1ccc(C#Cc2ccccc2F)cc1 [Example 92, (R)-4-((2-fluorophenyl)ethynyl)-N-((tetrahydro-2H-pyran-3-yl)methyl)benzamide]	< 0.1	0.1 to 0.5			inhibition in vivo at 25 mg/kg [1, 7]: 39.8%; inhibition in vivo at 25 mg/kg [1, 8]: 48.7%
O=C(NCC1CCOC1)c1ccc(C#Cc2ccc(F)cc2)cc1 (stereo not shown) [Example 94, 4-((4-fluorophenyl)ethynyl)-N-((tetrahydrofuran-3-yl)methyl)benzamide]	0.1 to 0.5	0.1 to 0.5	74.2	97.7	
OC(c1ccccc1)C1CCN(CCc2ccccc2)CC1 (stereo not shown) [MDL11,939]					analgesic effect (% reversal), administered alone [2]: did not show a significant analgesic effect
Cc1cccc(C#Cc2ccccc2)n1 [MPEP, 2-methyl-6-(phenylethynyl)pyridine]					analgesic effect (% reversal), administered alone [2]: did not show a significant analgesic effect
